Columns and labels:
[1] = test system: corn; test: Test C pre-/postemergence herbicide test; assay type: in vivo, Zea mays; conditions: Preemergence
In short: (§1)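 Two application timings ran in parallel with identically formulated test chemicals (non-phytotoxic solvent, surfactant included): spray on seeded loam–sand soil, and spray on emerged plants 2 to 18 cm high. Evaluation at 13 to 15 days compared each species with controls, rated from 0 up to 100.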

[2] = test system: barnyardgrass; test: Test A pre-/postemergence herbicide test; assay type: in vivo, Echinochloa crus-galli
In short: (§2)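 Directed soil spray to seeded pots (preemergence) or spray onto one- to two-leaf seedlings 2–10 cm tall (postemergence); loam/sand substrate throughout. Evaluated visually after about 10 days against untreated plants, 0 = no effect, 100 = complete control.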

[3] = test system: ryegrass, Italian; test: Test C pre-/postemergence herbicide test; assay type: in vivo, Lolium multiflorum; conditions: Preemergence
In short: as §1

[4] = test system: corn; test: Test A pre-/postemergence herbicide test; assay type: in vivo, Zea mays
In short: as §2

[5] = test system: lambsquarters; test: Test C pre-/postemergence herbicide test; assay type: in vivo, Chenopodium album; conditions: Preemergence
In short: as §1

[6] = test system: nutsedge, yellow; test: Test C pre-/postemergence herbicide test; assay type: in vivo, Cyperus esculentus; conditions: Preemergence
In short: as §1

[7] = test system: soybean; test: Test C pre-/postemergence herbicide test; assay type: in vivo, Glycine max; conditions: Preemergence
In short: as §1

[8] = test system: barnyardgrass; test: Test C pre-/postemergence herbicide test; assay type: in vivo, Echinochloa crus-galli; conditions: Preemergence
In short: as §1

[9] = test system: waterhemp; test: Test C pre-/postemergence herbicide test; assay type: in vivo, Amaranthus rudis; conditions: Preemergence
In short: as §1

[10] = test system: ducksalad; test: Test B flooded paddy test; assay type: in vivo, Heteranthera limosa; conditions: 250 g ai/ha, Flood; scale of 0 to 100 where 0 is no effect and 100 is complete control
In short: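 In-water application to pots flooded 3 cm deep, plants at 2-leaf stage. Held in greenhouse 13–15 days at constant flood depth. Scored 0–100 by eye against controls.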

[11] = test system: giant foxtail; test: Test A pre-/postemergence herbicide test; assay type: in vivo, Setaria faberii
In short: as §2

[12] = 31 g ai/ha, scale 0 to 100, 0 is no effect and 100 is complete control
[13] = 125 g ai/ha, scale 0 to 100 (0 no effect, 100 complete control)
[14] = Postemergence, 125 g ai/ha, 0 to 100 scale, 0 no effect, 100 complete control
[15] = Postemergence, 500 g ai/ha, 0 to 100 scale (0 no effect, 100 complete control)
[16] = Preemergence, 125 g ai/ha, visual rating on 0 to 100 scale (0 no effect, 100 complete control)
[17] = preemergence, 500 g ai/ha, 0 to 100 scale

O=C1NCC(c2ccc(F)c(C(F)(F)F)c2)C1C(=O)Nc1ccccc1C(F)(F)F (racemic) [Compound 78]
Corn plant response rating [1, 12]: 0
Plant response rating, Corn ([1]; 62 g ai/ha, scale 0 to 100): 0
Plant response rating, Corn [1, 13]: 40
Plant response rating (scale of 0 to 100), Corn ([1]; 250 g ai/ha): 60
Plant response rating, Barnyardgrass [2, 14]: 50
Plant response rating, Barnyardgrass [2, 15]: 70
Barnyardgrass plant response rating [2, 16]: 80
Plant response rating, Barnyardgrass ([2]; preemergence, 500 g ai/ha, 0 to 100 scale (0 no effect, 100 complete control)): 90
Ryegrass, Italian plant response rating [3, 12]: 0
Plant response rating, Ryegrass, Italian ([3]; 62 g ai/ha, scale 0 to 100): 40
Plant response rating, Ryegrass, Italian [3, 13]: 40
Plant response rating (scale of 0 to 100), Ryegrass, Italian ([3]; 250 g ai/ha): 45
Plant response rating, Corn [4, 14]: 20
Plant response rating, Corn [4, 15]: 50
Corn plant response rating [4, 16]: 0
Plant response rating, Corn [4, 17]: 0
Plant response rating, Lambsquarters ([5]; 62 g ai/ha, scale 0 to 100): 40
Plant response rating, Lambsquarters [5, 13]: 85
Plant response rating (scale of 0 to 100), Lambsquarters ([5]; 250 g ai/ha): 85
Nutsedge, Yellow plant response rating [6, 12]: 0
Plant response rating, Nutsedge, Yellow ([6]; 62 g ai/ha, scale 0 to 100): 0
Plant response rating, Nutsedge, Yellow [6, 13]: 0
Plant response rating (scale of 0 to 100), Nutsedge, Yellow ([6]; 250 g ai/ha): 0
Soybean plant response rating [7, 12]: 0
Plant response rating, Soybean ([7]; 62 g ai/ha, scale 0 to 100): 0
Plant response rating, Soybean [7, 13]: 0
Plant response rating (scale of 0 to 100), Soybean ([7]; 250 g ai/ha): 0
Barnyardgrass plant response rating [8, 12]: 60
Plant response rating, Barnyardgrass ([8]; 62 g ai/ha, scale 0 to 100): 75
Plant response rating, Barnyardgrass [8, 13]: 85
Plant response rating (scale of 0 to 100; 0 is no effect, 100 is complete control), Barnyardgrass ([8]; 250 g ai/ha): 95
Waterhemp plant response rating [9, 12]: 50
Plant response rating, Waterhemp ([9]; 62 g ai/ha, scale 0 to 100): 75
Plant response rating, Waterhemp [9, 13]: 85
Plant response rating (scale of 0 to 100), Waterhemp ([9]; 250 g ai/ha): 85
Plant response rating, Ducksalad [10]: 85
Plant response rating, Foxtail, Giant [11, 14]: 80
Plant response rating, Foxtail, Giant [11, 15]: 80
Foxtail, Giant plant response rating [11, 16]: 90
Plant response rating, Foxtail, Giant [11, 17]: 90
